Experiment [1] concerns mIMCD3 cells. Nature of the experiment: Proliferation assay (Incucyte confluence). The format is cell-based, mouse. The following applies: 7 days. The method, then: FIG. 5. Probenecid inhibits proliferation in mICMD3 cells. mIMCD3 cells were grown in 96 wells plate (2500 […]) for 7 days and imaged every 4 hours in an incubator-based imaging system (Incucyte). Confluence was measured at each time point. Cells were treated with defined medium (control), forskolin (FSK) 10 μM, or probenecid (PB) 500 μM and 1000 μM. Control and forskolin (FSK 10 μM) groups reached confluence faster when compared to probenecid alone or probenecid with forskolin. […] Cells were seeded in 96 wells plate (2500 cells/well) and grown for 7 days. Images were taken by an incubator-based microscope (Incucyte) every 4 hours and analyzed for confluence. Probenecid inhibited proliferation in a dose dependent manner. Cells were grown and imaged for 7 days in an incubator-based imaging system (IncuCyte) and analyzed for confluence.

In experiment [2] the test system is mIMCD3 cells. Nature of the experiment: Time-lapse imaging of cytoplasmic calcium with Gcamp6s biosensor. The class given is cell-based, mouse. To be noted: probenecid 1000 μM, mIMCD3 cells stably transfected with Gcamps6s. The protocol:
FIG. 1B. Probenecid increases intracytoplasmic calcium in mouse inner medullary collecting duct cells (mIMCD3). mIMCD3 cells were stably transfected with […] (cytoplasmic calcium genetically encoded biosensor) and grown on 35 mm glass bottom dish for at least 5 days post confluence then imaged under confocal microscopy every 3 seconds. Probenecid (1000 μM) was added to the medium at 10.5 minutes as noted by the blue bar. Fluorescence changes of a region of interest (ROI) in each cell are analyzed in Zen software and reported as a ratio of fluorescence over baseline fluorescence of each ROI (F/F0). An increase in F/F0 indicates relative increase in cytoplasmic calcium. Probenecid increased cytoplasmic calcium by 4-6 folds compared to baseline calcium. Two representative images at baseline and at peak increase of cytoplasmic calcium are shown. Mouse inner medullary collecting duct immortalized cell lines were used (mIMCD3): wild type (WT) or with a knockout of Pkd1 (Pkd^1-/-) or Pkd2 (Pkd^2-/-). WT cells were transfected with GCamp6s by electroporation (Bio Rad Gene pulser Xcell). […] Time lapses (every 3 seconds) were captured on Zeiss confocal microscope (LSM-780) and analyzed on Zeiss Zen Pro software. […] Fluorescence changes of a region of interest (ROI) in each cell were analyzed in Zen software and reported as a ratio of fluorescence over baseline fluorescence of each ROI (F/F0). […]

Experiment [3] relates to mIMCD3 cells. Nature of the experiment: Three dimensional (3D) cystogenesis assay, forskolin-induced. The class given is cell-based, mouse. The following applies: for reduction in cyst size: 5 days. The protocol: FIG. 2. Probenecid reduces forskolin-induced cystogenesis. mIMCD3 cells were grown in 3D matrigel-based extracellular matrix system and incubated with defined medium (control)+/−forskolin (10 μM) and probenecid (500 μM and 1000 μM) for 5 days. Cysts were imaged using an inverted phase microscope, and cyst size was quantified by measuring cyst diameter using Image J software and reported as cyst surface area (μm^2). Forskolin induced cystogenesis in wild type. […] FIG. 3. Probenecid reduces forskolin induced in vitro cystogenesis. As described in FIG. 3, cells were grown in matrigel based system for 5 days. All four groups shown were stimulated with 10 μM of forskolin. Different doses of probenecid were compared. A dose effect was seen as higher dose of probenecid were more efficacious in reducing cyst growth when stimulated with forskolin. […] 3D matrix was prepared by mixing 1:1 matrigel with defined medium (DMEM, 25 μg/L EGF, 5 μg/mL insulin, 5 μg/mL transferrin, 5 ng/mL selenium, penicillin, streptomycin, 5×10^−12 M triiodothyronine, and 5×10^−8 M hydrocortisone). Cells were mixed with the extracellular matrix and grown in 96-wells plate (8000-10000 cells per well). The desired drug concentration (forskolin 10 μM, probenecid 500-1000 μM) was added to the medium and changed on a daily basis. Images of the wells were taken daily by an inverted phase contrast microscope. Images from day 5 were analyzed using Image J software. Cyst surface was calculated using cyst diameter. mIMCD3 cells were grown in three dimensional matrix-based extracellular matrix. When stimulated with forskolin, these cells grew to form multiple cysts. […] The cyst reduction may be due to inhibition of cell proliferation, inhibition of chloride driven fluid secretion, or both.

Experiment [4] has as its system mIMCD3 cells. Nature of the experiment: cAMP ELISA assay. The format is cell-based, mouse. The method, then:
FIG. 4. Probenecid enhances the intracellular accumulation of cAMP generated in response to forskolin. Wild type mIMCD3 cells were grown in 6 wells plate to confluence for at least 5 days then treated with either forskolin (10 μM) alone, probenecid alone (500 μM; PB 500), or forskolin (FSK) with probenecid (100 μM, PB100; 250 μM, PB250; and 500 μM, PB500). cAMP was measured by ELISA assay (pmol/mg of protein). […] Cells were grown in 6-wells culture dishes and incubated for at least 5 days post confluence. Cells were collected then homogenized in 0.1 M HCl. The protein concentration was measured by using BCA Protein Assay Kit. After centrifugation, the supernatant was further diluted in 0.1 M HCl. cAMP content was assessed by enzyme-linked immunosorbent assay. The results were expressed in picomoles per milligram of protein. Probenecid inhibited MRP1 mediated efflux of cAMP.
In general terms: ELISA stands for enzyme-linked immunosorbent assay.

Experiment [5] relates to Pkd1^RC/RC PKD mouse model. Nature of the experiment: PKD mouse model Pkd1RC/RC, kidney weight/body weight. The format is in vivo. The following applies: Pkd1^RC/RC mice, 0.03 mg in 100 mg of chow, treated from age 4 weeks to 12 weeks. The protocol:
The PKD mouse model, Pkd1^RC/RC, was used in this experiment. Probenecid (0.03 mg in 100 mg of chow), tolvaptan (0.03 mg in 100 mg of chow), or the combination of tolvaptan and probenecid were mixed with the food. […] The treatment started from age 4 weeks to 12 weeks. Mice were sacrificed, and the kidney weight (KW) was measured then standardized to body weight (BW). KW/BW ratio was an established method to report an effect of therapy in ADPKD mouse models.

The test system of another experiment is embryonic kidneys. Nature of the experiment: Forskolin-induced cystogenesis in cultured embryonic kidneys. The following applies: E13.5 kidneys, forskolin-stimulated, probenecid 500 μM, day 5. The method, then:
FIG. 6 contains photographs showing that probenecid (500 μM) dramatically reduces cystogenesis in embryonic kidneys. Embryonic kidneys were harvested at E13.5 (embryos were 13-14 days old in utero). These kidneys were harvested and cultured on filters and stimulated with forskolin to induce cysts.

Where “and” joins values, the source holds several entries; their conditions need not be identical. Equal entries are not always repeated. Entries after “also recorded” stand apart in the source; their conditions may differ.

In the case of `CCCN(CCC)S(=O)(=O)c1ccc(C(=O)O)cc1` [probenecid, 4-(dipropyl-sulfamoyl) benzoic acid], the “proliferation (confluence)” value is recorded as “most completely inhibited proliferation” in the experiment on mIMCD3 cells [1] (Pkd2 null mIMCD3, probenecid 1000 μM alone); “significantly inhibited proliferation” in the experiment on mIMCD3 cells [1] (wild type mIMCD3, probenecid 500 and 1000 μM). Also, the “increase in cytoplasmic calcium (F/F0) compared to baseline calcium” value in the experiment on mIMCD3 cells [2] is 4-6 fold and 4- to 6 fold. For the same compound, the “reduction in cyst size” value in the experiment on mIMCD3 cells [3] (probenecid 500 μM with forskolin 10 μM) is recorded as 68.4%; in the experiment on mIMCD3 cells [3] (probenecid 1000 μM with forskolin 10 μM), 82.6%. Besides, the “reduction of cystic burden in 3D in vitro cystogenesis assay” value with mIMCD3 cells [3] (summary statement) is “more than 80%”. In addition, in the experiment on mIMCD3 cells [3] (without forskolin), the “cystogenesis with probenecid alone” value is reported as “did not induce any cystogenesis”. In the experiment on mIMCD3 cells [4] (wild type mIMCD3, forskolin 10 μM plus probenecid 100, 250, 500 μM), the “intracellular cAMP, probenecid combined with forskolin versus forskolin alone” value was “increased cAMP levels in a dose dependent fashion”. Further, the “intracellular cAMP, probenecid alone” value with mIMCD3 cells [4] (wild type mIMCD3, probenecid 500 μM, no forskolin) is “did not increase cAMP”. Further, the “mean KW/BW ratio” value in experiment [5] is 2.56% (±0.42). In addition, the “cyst formation in embryonic kidney culture” value with embryonic kidneys is given as “significantly inhibited; also recorded: almost completely prevents cyst formation”.

`Cc1ccccc1C(=O)Nc1ccc(C(=O)N2CCCC(O)c3cc(Cl)ccc32)c(C)c1` (stereo not drawn) [tolvaptan]: in experiment [5], the “mean KW/BW ratio” value is listed as 2.07% (±0.42).

Source of the values: US11547685B2, “Using probenecid to treat polycystic kidney disease” (Mayo Foundation for Medical Education and Research, priority 2017, dated 2023).
